Patent US20260069619A1, “Treatment of Dry Eye Disease Using Mitochondrially Targeted Antioxidants” (MITOTECH S.A., priority 2022, published 2026)

Assays:
eye = conditions: cited from earlier work
[1] = tested on: subjects with dry eye syndrome; assay: VISTA-2 clinical study (NCT04206020): central corneal fluorescein staining; assay type: in vivo, human; conditions: for Change from baseline in central fluorescein staining, LS Mean: 1.55 μg/mL SkQ1, ITT subgroup, observed data only
Procedure: The VISTA-2 (NCT04206020) clinical study reported results of a dose of 1.55 μg/mL SkQ1 compared to placebo (vehicle). VISTA-2 reported a measured change of ocular discomfort scale. The scale ranged from 0 to 4 with 0=no discomfort and 4=constant discomfort from baseline to Day 57. VISTA-2 reported a measured change of level of conjunctival fluorescein staining (sum of temporal and nasal regions). The scale in each region ranged from 0 to 4, with 0=no staining and 4=confluent staining from baseline to day 57. Study subjects were carefully monitored for any adverse events.
(§1) In addition to the reported data, observed data collected during the VISTA-1 and VISTA-2 clinical studies were analyzed in an ITT subgroup with an unanesthetized Schirmer's Test ≥7 mm at baseline (initial evaluation).
(§2) In both VISTA-1 and VISTA-2, post-hoc analyses were conducted on observed data for the ITT subgroup including subjects with an unanesthetized Schirmer's test score of ≥7 mm at baseline, with observed data only to evaluate change from baseline in central fluorescein staining. Table 4 summarizes the results for subjects with unanesthetized Schirmer's test score of […] at baseline. […] In VISTA-2, with increased sample size, significant improvement was confirmed in this subgroup (pANCOVA=0.0168). In Table 4, the change from baseline in central fluorescein staining for the ITT subgroup with unanesthetized Schirmer's test score of ≥7 mm at baseline is provided with observed data only.
(§3) A similar subgroup, as described above, was also analyzed in post-hoc analyses for both VISTA-1 and VISTA-2 to evaluate the proportion of subjects with clearing of corneal fluorescein staining in the central region. […] In VISTA-2, with increased sample size, significant improvement was confirmed (pLogistic regression=0.0049, pPearson chi-squared=0.0033, pFisher's exact test=0.0037). In Table 5, the proportion of study subjects with clearing of corneal fluorescein staining in the central corneal region, for the ITT Subgroup with unanesthetized Schirmer's test score of ≥7 mm at baseline is presented, with observed data only.

[2] = tested on: subjects with dry eye syndrome; assay: VISTA-1 clinical study (NCT03764735): central corneal fluorescein staining; assay type: in vivo, human; conditions: for Change from baseline in central corneal fluorescein staining, ANCOVA model LS Mean (SE) / Difference in Means, Active - Placebo (two-sample t-test), central corneal fluorescein staining change: 57 days, mITT; for Change from baseline in central corneal fluorescein staining, Mean (SD): after 57 days, mITT population, scale 0-4; for Change from baseline in central fluorescein staining, LS Mean: ITT subgroup, observed data only
Description: The VISTA-1 clinical study (NCT03764735) evaluated ophthalmic solutions with different concentrations of SkQ1 for various aspects of safety and effectiveness compared to placebo (vehicle) for treatment of various signs and symptoms of DED. The vehicle was an artificial tear treatment used as a control.
The VISTA-1 study reported change of level of corneal fluorescein staining from baseline to day 57. The level of corneal fluorescein scale ranged from 0 to 4, where level 0=none and level 4=severe. VISTA-1 reported a change in symptoms such as subject-reported grittiness from baseline to day 57, where the scale ranged from 0 to 5 for each symptom, where 0=none and 5=worst. Study subjects were carefully monitored for any adverse events.
as §1, §2, §3

[3] = tested on: subjects with dry eye syndrome; assay: VISTA-2 clinical study: best corrected visual acuity (BCVA-logMAR); assay type: in vivo, human; conditions: blurred vision [OSDI 4]≥1, poor vision [OSDI 5]≥1 at baseline
Description: Visual acuity can be measured by a health care provider to provide a sign of DED. The visual acuity can be a best corrected visual acuity (BCVA) of an eye or of both eyes. A logarithm of the minimum angle of resolution (LogMAR) chart such, for example, a Bailey-Lovie chart or an Early Treatment Diabetic Retinopathy Study chart can be utilized to measure BCVA. The number of letters read correctly by a subject can be converted to logMAR scores. The VISTA-2 (NCT04206020) clinical study reported results of a dose of 1.55 μg/mL SkQ1 compared to placebo (vehicle). VISTA-2 reported a measured change of ocular discomfort scale. The scale ranged from 0 to 4 with 0=no discomfort and 4=constant discomfort from baseline to Day 57. VISTA-2 reported a measured change of level of conjunctival fluorescein staining (sum of temporal and nasal regions). The scale in each region ranged from 0 to 4, with 0=no staining and 4=confluent staining from baseline to day 57. Study subjects were carefully monitored for any adverse events. [table] In VISTA-2, change from baseline in BCVA using a logMAR (BCVA-logMAR) at Visit 3 was evaluated in the ITT subgroup including subjects with Schirmer's test score ≥7 mm, blurred vision [OSDI 4]≥1, and poor vision [OSDI 5]≥1 at baseline. Significant improvement was shown in VISTA-2 with pANCOVA=0.0143. […]

[4] = 1.55 μg/mL SkQ1, ITT subgroup Schirmer's ≥7 mm at baseline
[5] = 1.55 μg/mL SkQ1, ITT subgroup Schirmer's ≥7 mm at baseline, of 78 subjects
[6] = VISTA-1, 1.55 μg/mL SkQ1, ITT subgroup Schirmer's ≥7 mm at baseline
[7] = VISTA-1, 1.55 μg/mL SkQ1, ITT subgroup Schirmer's ≥7 mm at baseline, of 46 subjects

SkQ1
dose at which mild ocular toxicity is observed (eye; in vivo): 45 μg/eye/day
no observed adverse effect level (NOAEL) for ocular toxicity (eye; per eye per day): 4.5 μg/eye/day
Proportion of Subjects with Fluorescein Staining in the Central Region (>0 Score) [1, 4]: (83.3%)
Proportion of Subjects without Fluorescein Staining in the Central Region (=0 Score) [1, 4]: (16.7%)
Number of Subjects with Fluorescein Staining in the Central Region (>0 Score) [1, 5]: 65
Number of Subjects without Fluorescein Staining in the Central Region (=0 Score) [1, 5]: 13
Change from baseline in central fluorescein staining, LS Mean ([1]; unanesthetized Schirmer's test <7 mm at baseline): −0.156
Change from baseline in central fluorescein staining, LS Mean ([1]; unanesthetized Schirmer's test ≥7 mm at baseline): −0.43
Odds Ratio, Logistic Regression, clearing of central corneal fluorescein staining, 1.55 μg/mL SkQ1 - Placebo ([1]; ITT subgroup Schirmer's ≥7 mm at baseline): 6.73
Change from baseline in central corneal fluorescein staining, ANCOVA model LS Mean (SE) ([2]; 0.155 μg/mL SkQ1): −0.31 (0.059)
Difference in Means, Active - Placebo (two-sample t-test), central corneal fluorescein staining change ([2]; 0.155 μg/mL SkQ1): −0.02
Change from baseline in central corneal fluorescein staining, ANCOVA model LS Mean (SE) ([2]; 0.155 μg/mL SkQ1, listed as SkQ): −0.31
Change from baseline in central corneal fluorescein staining, Mean (SD) ([2]; 0.155 μg/mL SkQ1 ophthalmic solution BID): −0.30 (0.816)
Change from baseline in central corneal fluorescein staining, ANCOVA model LS Mean (SE) ([2]; 1.55 μg/mL SkQ1): −0.20 (0.058)
Difference in Means, Active - Placebo (two-sample t-test), central corneal fluorescein staining change ([2]; 1.55 μg/mL SkQ1): 0.08
Change from baseline in central corneal fluorescein staining, ANCOVA model LS Mean (SE) ([2]; 1.55 μg/mL SkQ1, listed as SkQ6): −0.20
Change from baseline in central corneal fluorescein staining, Mean (SD) ([2]; 1.55 μg/mL SkQ1 ophthalmic solution BID): −0.20 (0.763)
Treatment effect on the central fluorescein staining sign of dry eye vs placebo ([2]; 0.155 and 1.55 μg/mL SkQ1 ophthalmic solution, all treatment groups): no statistically significant beneficial treatment effect
Proportion of Subjects with Fluorescein Staining in the Central Region (>0 Score) [2, 6]: (84.8%)
Proportion of Subjects without Fluorescein Staining in the Central Region (=0 Score) [2, 6]: (15.2%)
Number of Subjects with Fluorescein Staining in the Central Region (>0 Score) [2, 7]: 39
Number of Subjects without Fluorescein Staining in the Central Region (=0 Score) [2, 7]: 7
Change from baseline in central fluorescein staining, LS Mean ([2]; VISTA-1, 1.55 μg/mL SkQ1, unanesthetized Schirmer's test <7 mm at baseline): −0.20
Change from baseline in central fluorescein staining, LS Mean ([2]; VISTA-1, 1.55 μg/mL SkQ1, unanesthetized Schirmer's test ≥7 mm at baseline): −0.46
Odds Ratio, Logistic Regression, clearing of central corneal fluorescein staining, 1.55 μg/mL SkQ1 - Placebo ([2]; VISTA-1, ITT subgroup Schirmer's ≥7 mm at baseline): 7.57
BCVA-logMAR change from baseline, LS Mean (SE) ([3]; 1.55 μg/mL SkQ1, ITT subgroup Schirmer's <7 mm): −0.0 (0.0137)
BCVA-logMAR change from baseline, LS Mean (SE) ([3]; 1.55 μg/mL SkQ1, Visit 3, ITT subgroup Schirmer's ≥7 mm): −0.012 (0.0143)
